Data taken from US5527809A, “Substituted imidazo[4,5-b]pyridines and benzimidazoles” (Bayer Aktiengesellschaft, priority 1993, dated 1996).

Assays:
smooth muscle cells = test: Inhibition of the proliferation of smooth muscle cells (3H-thymidine incorporation); assay type: cell-based; conditions: rat aorta smooth muscle cells; thymidine incorporation produced by 10% FCS; read-out: IC50 (half-maximum inhibition of thymidine incorporation)
Description: Investigation of the inhibition of the proliferation of smooth muscle cells by the compounds according to the invention
To determine the antiproliferation action of the compounds, smooth muscle cells are used which are obtained from aortas of rats by the media explant technique [R. Ross, J. Cell. Biol. 50, 172, 1971]. The cells are inoculated in suitable culture dishes, as a rule 96-hole plates, and cultured in 5% CO2 at 37° C. for 2-3 days in medium 199 containing 7.5% FCS and 7.5% NCS, 2 mM L-glutamine and 15 mM HEPES, pH 7.4. The cells are then synchronized by withdrawal of serum for 2-3 days and then stimulated into growth with serum or other factors. Test compounds are simultaneously added. After 16-20 hours, 1 μCi of ^3 H-thymidine is added and after a further 4 hours the incorporation of this substance into the TCA-precipitatable DNA of the cells is determined. To determine the IC50 values, the active compound concentration is calculated which, on sequential dilution of the active compound, causes half-maximum inhibition of the thymidine incorporation produced by 10% FCS.

angiotensin II receptor = target: T1, angiotensin II receptor (Bos taurus, UniProt P25104); test: Interaction with the angiotensin II receptor in membrane fractions of the adrenal gland cortex (bovine), 3H-angiotensin II binding; conditions: bovine adrenal gland cortex membranes; 3H-angiotensin II 3-5 nM; 60 min, room temperature; read-out: IC50 (50% inhibition of the specific binding of the radioligand)
T1 construct: partially purified membrane fractions of bovine AGC; from tissue; host or cells: bovine adrenal gland cortex, partially purified membrane fractions
T1 sequence (P25104 1-359): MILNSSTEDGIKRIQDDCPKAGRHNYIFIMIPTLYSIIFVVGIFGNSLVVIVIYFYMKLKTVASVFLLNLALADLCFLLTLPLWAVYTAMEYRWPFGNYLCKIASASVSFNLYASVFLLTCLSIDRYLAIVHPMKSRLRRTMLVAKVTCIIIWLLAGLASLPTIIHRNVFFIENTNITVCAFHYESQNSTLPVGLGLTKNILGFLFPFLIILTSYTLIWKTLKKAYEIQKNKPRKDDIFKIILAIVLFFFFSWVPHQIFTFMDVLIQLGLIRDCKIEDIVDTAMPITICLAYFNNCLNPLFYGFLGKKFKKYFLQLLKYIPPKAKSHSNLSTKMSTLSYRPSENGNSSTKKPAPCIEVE
Description: Interaction of the compounds according to the invention with the angiotensin II receptor in membrane fractions of the adrenal gland cortex (bovine)
Bovine adrenal gland cortices (AGC), which have been freshly removed and carefully freed from medulla from capsule, are comminuted in sucrose solution (0.32M) with the aid of an Ultra-Turrax (Janke & Kunkel, Staufen i.B.) to give a coarse membrane homogenate and are partially purified in two centrifugation steps to give membrane fractions. The receptor binding investigations are carried out on partially purified membrane fractions of bovine AGC using radioactive angiotensin II in an assay volume of 0.25 ml, which specifically contains the partially purified membranes (50-80 μg), ^3 H-angiotensin II (3-5 nM), test buffer solution (50 mM Tris, pH 7.2), 5 mM MgCl2 and the substances to be investigated. After an incubation time of 60 min at room temperature, the unbound radioactivity of the samples is separated by means of moistened glass fibre filters (Whatman GF/C) and the bound radioactivity is measured […] in a scintillation cocktail after washing the protein with ice-cold buffer solution (50 mM Tris/HCl, pH 7.4, 5% PEG 6000). […]

[1] = system: isolated rabbit aorta (contraction induced by angiotensin II); test: Inhibition of the contraction induced by agonists in isolated rabbit aorta rings (angiotensin II); conditions: Oryctolagus cuniculus, based on the 3rd = submaximal agonist concentration, read-out: IC50 (50% inhibition of agonist-induced contraction)
Description: Investigation of the inhibition of the contraction induced by agonists
Rabbits of either sex are stunned by a blow to the back of the head and exsanguinated, or in some cases anaesthetized with Nembutal (about 60-80 mg/kg i.v.) and sacrificed by opening the thorax. The thoracic aorta is removed, freed from adhering connective tissue, divided into ring segments 1.5 mm wide and individually transferred under an initial loading of about 3.5 g to 10 ml organ baths containing Krebs-Henseleit nutrient solution, which is temperature-controlled at 37° C. and aerated with 95% 02 / 5% CO2, of the following composition: 119 mmol/l NaCl; 2.5 mmol/l CaCl2 ×2H2 O; 1.2 mmol/l KH2 PO4; 10 mmol/l glucose; 4.8 mmol/l KCl; 1.4 mmol/l MgSO4 ×7 H2 O and 25 mmol/l NaHCO3.
The contractions are detected isometrically by Statham UC2 cells by means of bridge amplifiers (ifd Mulheim or DSM Aalen) and digitalized and assessed by means of A/D converters (System 570, Keithley Munich). Agonist dose response curves (DRC) are carried out hourly. With each DRC, 3 or 4 individual concentrations are applied to the baths at a 4 min interval. After the end of the DRC and subsequent washing-out cycles (16 times in each case about 5 sec/min with the abovementioned nutrient solution), a 28-minute rest or incubation phase follows, during which the contractions as a rule reach the starting value again. […]

IC50 (angiotensin II receptor) [µM]	IC50 [1] [µM]	Structure (SMILES)	IC50 (smooth muscle cells) [µM]
–	–	Cc1ccnc2c1nc(-c1ccccc1)n2Cc1ccc(C(C(=O)NC(C(N)=O)c2ccccc2)C2CCCCCC2)cc1 (centres unmarked) [Example 23]	0.043
0.21	–	Cc1cc(C)c2nc(C3CC3)n(Cc3ccc(C(C(=O)O)C(C)C)cc3)c2n1 (centres unmarked) [Example 2]	–
–	–	O=C(N[C@H](CO)c1ccccc1)C(c1ccc(Cn2c(-c3ccccc3)nc3cccnc32)cc1)C1CCCCCC1 (some centres unmarked) [Example 14]	0.12
0.016	0.061	Cc1ccc(S(=O)(=O)NC(=O)Cc2ccc(Cn3c(C4CC4)nc4c(C)cc(C)nc43)cc2)cc1 [Example 9]	–
